According to US5004738A, “1,1-dioxopenicillanoyl oxymethyl D-6-(α-(methyleneamino) phenylacetamido)-penicillanate and a process for the preparation thereof” (priority 1989, dated 1991):
≈ marks a conversion by molar mass, not a printed value.

Key:
[1] = tested on: Staphylococcus aureus SG511; experiment: In vitro antibacterial activity test (agar dilution, Mueller Hinton Agar); format: cell-based; settings: 18 hours at 37° C.
Protocol: (§1) (1) In vitro antibacterial activity test
(§2) 2 fold dilutions of the testing compounds were employed by using agar dilution method of Mueller Hinton Agar. After 18 hours at 37° C., the susceptibility (MIC) of the test organism was accepted as the lowest concentration of compound capable of producing complete inhibition of growth as judged by the naked eye.

[2] = tested on: Streptococcus faecium MD8; experiment: as above; format: cell-based; settings: Enterococcus faecium, 18 hours at 37° C.
Protocol: as §1, §2

[3] = tested on: Escherichia coli DC2; experiment: as above; format: cell-based; settings: 18 hours at 37° C.
Protocol: as §1, §2

[4] = tested on: Enterobacter cloacae 132E; experiment: as above; format: cell-based; settings: 18 hours at 37° C.
Protocol: as §1, §2

[5] = tested on: β-lactamases; settings: cited from earlier work
[6] = tested on: gram-positive and gram-negative bacteria; settings: cited from earlier work

C=N[C@@H](C(=O)N[C@@H]1C(=O)N2[C@@H]1SC(C)(C)[C@@H]2C(=O)OCOC(=O)[C@@H]1N2C(=O)C[C@H]2S(=O)(=O)C1(C)C)c1ccccc1 [compound (I), 1,1-dioxopenicillanoyl oxymethyl D-6-[(α-methyleneamino)phenylacetamido]-penicillanate]
MIC [1]: 0.098 µg/mL (≈ 0.162 µM) | MIC [2]: 0.781 µg/mL (≈ 1.29 µM) | MIC [3]: 1.56 µg/mL (≈ 2.58 µM) | MIC [4]: 1.56 µg/mL (≈ 2.58 µM)

CC1(C)[C@H](C(=O)O)N2C(=O)C[C@H]2S1(=O)=O [sulbactam, 3.3-dimethyl-7-oxo-4thia-1-azabicyclo(3.2.0)heptane-2-carboxylic acid, 4-4-dioxide [2S(2α,5α)]]
inhibition of β-lactamases ([5]; alone): poor inhibitor of β-lactamases | inhibition of the enzymatic hydrolysis of antibiotics ([5]; with β-lactamase inhibiting antibiotics): modest increase in inhibition of the enzymatic hydrolysis of antibiotics

C=N[C@@H](C(=O)N[C@@H]1C(=O)N2[C@@H]1SC(C)(C)[C@@H]2C(=O)O)c1ccccc1 [Methanpicillin]
inhibition against gram-positive and gram-negative bacteria [6]: marked increase in inhibition against gram-positive and gram-negative bacteria
